Consider 6 molecules from US20230302073A1, “BOTANICAL EXTRACTION” (Performance Labs Pte. Ltd., priority 2022, published 2023).

Values after ≈ are worked out from the molar mass of the structure shown.

Series [1] can be described thus: DPPH radical scavenging (antioxidant) assay. The series is classed as biochemical. Particulars: for IC50: DPPH, reference standards and yerba mate extracts by solvent (Table 10). For orientation: DPPH is a stable violet radical that fades when it is reduced.
Experimental: The free radical scavenging activity of all the extracts was evaluated by 1,1-diphenyl-2-picryl-hydrazyl (DPPH) according to a previously reported method (Shen et al., 2010).
Thirty mg of dried extract of each sample was diluted in 10 ml of methanol, obtaining a concentration of 3 mg/mL as stock solution. From this stock solution were obtained the concentrations of 1.5, 0.75; 0.375; 0.1875; 0.09375; 0.046875; 0.0234275; and 0.01171825 mg/mL. Ascorbic acid, rutin, chlorogenic acid as pure reference standards were used as a positive control and dissolved in methanol to make the stock solution with the same concentration of extract solution.
DPPH (7.89 mg) was weighed on a chemical balance with a minimum weighing limit of 10 μg or smaller. Thereafter, it was dissolved in HPLC grade methanol to obtain a constant volume by filling 100 ml of a measuring flask (0.2 mM DPPH). Then further dilute this solution to 0.1 mM. The absorbance of a DPPH solution is empirically known to decrease with time until approximately 1 hr after preparation. Therefore, it was kept in dark for 2 hr until the absorbance stabilized.
The DPPH solution was stored in the dark at room temperature during the assay, and used up on the day of the preparation. 0.3 mL of each sample concentration and positive control was added to 2.7 mL of 0.1 mM DPPH solution. Reaction occurred inside tubes covered with aluminum paper, in a dark environment at 25° C. The mixtures were shaken vigorously and allowed to stand at room temperature for 30 minutes. Then the absorbance was measured at 517 nm using a microplate reader (Varioskan LUX, ThermoFisher). Control sample was prepared containing the same volume without any extract and reference ascorbic acid; methanol was used as blank and % scavenging of the DPPH free radical was measured using the following equation:
DPPH scavenging effect (% inhibition)={(Ac−As)/Ac)*100}
Where, Ac=absorbance of DPPH alone, As=absorbance of DPPH along with different concentrations of extracts.
The measurements were done at eight points of concentration. The measurement for and analytical sample solution at each concentration was repeated three times.
The IC50 of each analytical sample was calculated according to the following procedure: Inhibition ratio were plotted against the sample concentrations at all six points and the respective regression line (y=ax+b) was drawn. The regression line was not required to pass through the origin. In this step, we verified that all of the measurement points were on the regression line. […] When Y in the regression equation was substituted with 50, X (sample concentration) was calculated.
This value was obtained from the results of calculations using linear regression analysis. […]
For series [2] the following is noted: adults; cited from earlier work.
The conditions of series [3]: in choline chloride and glycerol; cited from earlier work.

Turning to `O=C(/C=C/c1ccc(O)c(O)c1)O[C@@H]1CC(O)(C(=O)O)C[C@@H](OC(=O)/C=C/c2ccc(O)c(O)c2)C1O` (stereo partly drawn) [3,5-diCQA, 3,5-dicaffeoylquinic acid], in series [1], the half-inhibitory concentration (IC50) – broadly, the concentration that gives 50% inhibition – turned out to be 185.68 µg/mL (≈ 360 µM). As for `O=C(/C=C/c1ccc(O)c(O)c1)O[C@H]1[C@H](O)C[C@](O)(C(=O)O)C[C@H]1OC(=O)/C=C/c1ccc(O)c(O)c1` [4,5-diCQA, 4,5-dicaffeoylquinic acid], in series [1], the concentration for half-maximal inhibition (IC50) amounted to 199.68 µg/mL (≈ 387 µM). Molecule `O=C1O[C@H]([C@@H](O)CO)C(O)=C1O` [ascorbic acid] came in with a 50% inhibitory concentration (IC50) in series [1] of 446.70 µg/mL (≈ 2540 µM). `Cn1c(=O)c2c(ncn2C)n(C)c1=O` [caffeine, 1,3,7-trimethylxanthine]: the “contribution to the extract's antioxidant property” value in series [1] (correlation of DPPH IC50 with total CQAs, with or without caffeine) was “no contribution”. For `C[N+](C)(C)CCO` [choline], the “daily upper limit, highest level of intake unlikely to cause harm” value in series [2] is listed as 3,500 mg/day.

For `Cn1cnc2c1c(=O)[nH]c(=O)n2C` [theobromine, 3,7-dimethylxanthine], the “solubility relative to water” value in series [3] is reported as roughly 32 times.
